Series [1] is described as follows: Na+, K+, Cl-, H+ efflux from liposomes. The note with it: 1:1000 AmB:lipid, vs DMSO vehicle. Format: biochemical. How it is done: Palmitoyl oleoyl phosphatidylcholine (POPC) was obtained as a 25 mg/mL solution in CHCl3 from Avanti Polar Lipids (Alabaster, AL) and was stored at −20° C. under an atmosphere of dry argon and used within 3 months. Cholesterol (Sigma Aldrich) was purified by recrystallization from ethanol. NaH^13CO3 was obtained as a white solid from Sigma Aldrich. Sodium, potassium, and chloride measurements were obtained using a Denver Instruments (Denver, CO) Model 225 pH meter equipped with the appropriate ion selective probe inside a Faraday cage. Sodium selective measurements were obtained using an Orion micro sodium electrode (Thermo 9811BN). Potassium selective measurements were obtained with an Orion Potassium Sure-Flow Combination Electrode with Waterproof BNC connector (Thermo 9719BNWP). Chloride selective measurements were obtained using an Orion combination chloride electrode (Thermo 9617BNWP). For sodium efflux experiments, measurements were made on 1.5 mL solutions that were magnetically stirred in 7 mL vials incubated at 23° C. […]
Prior to preparing a lipid film, this solution was warmed to ambient temperature to prevent condensation from contaminating the solution and degrading the lipid film. […] To obtain a sufficient quantity of large unilamellar vesicles (LUVs), at least two independent lipid film preparations were pooled together for the subsequent formation of LUVs. […]

In series [2] the test system is NuLi (CFTR^+/+) epithelia. The series can be described thus: ASL pH in non-CF cultured airway epithelia. The note with it: apical AmB 2 μM, 48 h. Format: cell-based, human. How it is done: (§1) Small diameter NuLi, CuFi, and primary cultured epithelia were used for this experiment (0.33 cm^2). The ratiometric pH indicator SNARF-conjugated dextran (Molecular Probes) was used to measure ASL pH. SNARF powder was suspended via sonication in perfluorocarbon (FC-72, Sigma) and distributed onto the apical surface. ASL pH was measured 2 hr later (3, 4, 25). SNARF was excited at 488 nm and emission was recorded at 580 nm and 640 nm using a Zeiss LSM 800 microscope at 40× water immersion for cell line cultures and a Zeiss LSM 510 microscope for primary cultures. To generate a standard curve for pH determination, SNARF was dissolved in colorless pH standards and fluorescence ratios were converted to pH.
(§2) Agents tested in this assay were first lyophilized into powder and then suspended in the appropriate volume of perfluorocarbon (FC-72, Sigma) and sonicated for 1 minute to suspend. AmBisome should not be sonicated; instead, the fine powder was suspended by vortexing.
(§3) In all experiments, ASL pH of compound-treated epithelia was measured compared the results to vehicle-treated epithelia.
For apical AmB administration, cultured airway epithelia were incubated for 30 min-48 hrs at 37° C. before measurement of ASL pH. For AmB-cholesterol complex and C35deOAmB administration, cultured airway epithelia were incubated for 48 hrs at 37° C. before measurement of ASL pH. […]

The subject of series [3] is primary cultured airway epithelia derived from humans with CF. The series can be described thus: ASL pH in primary cultured airway epithelia from CF donors. Format: cell-based, human. How it is done: Airway epithelial cells were obtained from human trachea and bronchi of CF and non-CF specimens obtained from the Iowa Donor Network, either as post-mortem specimens or from tissue deemed not fit for transplant. Studies were approved by the University of Iowa Institutional Review Board. After pronase enzymatic digestion, cells were seeded onto collagen-coated semi-permeable membranes (0.33-1.12 cm^2, Corning 3470 polyester, 3460 polyester, 3413 polycarbonate) and grown at an air-liquid interface (52). Airway epithelial cell cultures were analyzed after they had differentiated and at least 14 days post-seeding.
as §1, §2, §3
For apical AmB administration, cultured airway epithelia were incubated for 30 min-48 hrs at 37° C. before measurement of ASL pH. For AmB-cholesterol complex and C35deOAmB administration, cultured airway epithelia were incubated for 48 hrs at 37° C. before measurement of ASL pH. To test the effect of […] ATPase inhibition, AmB was administered 47 hours prior to 10 mM ouabain addition, and cultured airway epithelia were incubated for an additional 1 hr at 37° C. before measurement of ASL pH. For 10 μM ivacaftor/10 μM forskolin administration, cultured airway epithelia were incubated for 2 hrs at 37° C. before measurement of ASL pH (25). For basolateral AmB administration, a 2 mM stock of AmB in DMSO was diluted 1000-fold to a final concentration of 2 μM in USG media. The basolateral media of cultured airway epithelia was replaced with the AmB-containing USG media and incubated for 48 hrs at 37° C. before measurement of ASL pH.

The conditions of series [4]: in vivo; cited from earlier work.

These results are taken from US12090164B2, “Genotype-agnostic rescue of cystic fibrosis with small molecule bicarbonate channels” (The Board of Trustees of the University of Illinois, priority 2017, dated 2024).

Molecules are shown by their SMILES. “Also recorded” adds a separate entry of the source.

Turning to `C[C@@H]1[C@H](O)[C@@H](C)/C=C/C=C/C=C/C=C/C=C/C=C/C=C/[C@H](O[C@@H]2O[C@H](C)[C@@H](O)[C@H](N)[C@@H]2O)C[C@@H]2O[C@](O)(C[C@@H](O)C[C@@H](O)[C@H](O)CC[C@@H](O)C[C@@H](O)CC(=O)O[C@H]1C)C[C@H](O)[C@H]2C(=O)O` [AmB, amphotericin B], the “transport of potassium, sodium, chloride, protons across a lipid membrane” value in series [1] was “known to transport monovalent anions and cations; also recorded: can transport potassium, sodium, chloride, protons and HCO3^−”. Moreover, the “ASL pH in non-CF epithelia” value in series [2] was “No increase in ASL pH was observed”. Besides, the “ASL pH, apical addition” value in series [3] (9 donors, 2 μM, 48 h) was “caused an increase in ASL pH across a wide range of different genotypes; also recorded: increased ASL pH; also recorded: restores ASL pH”. Besides, the “ASL pH, basolateral addition of AmB” value in series [3] (AmB 2 μM basolateral, 48 h) is “did not increase ASL pH”. In addition, in series [3] (apical AmB 2 μM), the “average increase in ASL pH” value is given as 0.2 pH units and the “time for which the increase in ASL pH is sustained” value is reported as “at least 48 hours”. Further, in series [4], the toxicity to humans result is “significant toxicity to humans”.
